Test system: patients who have suffered from a myocardial infarction
Test: clinical trial of 3.5 years in infarcted patients on standard therapy, post-infarction mortality versus control group
Format: in vivo, human
Conditions: added to standard therapy
Source text: The efficacy of the treatment, according to the invention, is, for instance, proven by the fact that a surprising and highly significant reduction in post-infarction mortality was observed by such treatment in a clinical trial that lasted for 3.5 years, with protocols substantially designed as follows: • 1 a “control” group received the standard therapy which is usually given to infarcted patients; • 2 a “treatment” group, besides the therapy that was given to the “control” group, received 85% EPA+DHA (1 g daily); • 3 a “treatment” group, besides the therapy that was given to the “control” group received vitamin E; and • 4 a “treatment” group, besides the therapy that was given to the control group, received vitamin E and 85% EPA+DHA (1 g daily). […] From the above clinical results, the person skilled in the art will appreciate that, the use of a pharmaceutical composition in accordance to the present invention is certainly useful in human therapy in preventing mortality in patients who have suffered from a myocardial infarction.

## vitamin E
  result on mortality as compared to the control group (in words): no significant results

From US7462643B1, “Essential fatty acids in the prevention of cardiovascular events” (Pfizer Italia S.R.L., priority 1999, dated 2008)
